Measured values taken from publication PMC12434536, “Radiosynthesis and Preclinical Evaluation of a Carbon-11 Labeled Phosphodiesterase 7 Inhibitor for PET Neuroimaging” (ACS Medicinal Chemistry Letters, 2025).
pIC50: −log10 of the molar value.

Target: T1, PDE7A (Homo sapiens, UniProt Q13946)
T1 construct: purchased Eurofins Panlabs Discovery Services (contract assay)
Experiment: In vitro inhibitory assay of PDE7A activity
Type: biochemical
Details: human recombinant enzyme; read-out: inhibitory constant (IC50) toward PDE7A
Method: protein-ligand complex were saved and were then loaded into Schrödinger Maestro to generate the ligand interaction plot.
In vitro inhibitory assay to PDE7 of compound 27 and selectivity to other PDEs Functional activity of target compound 27 for inhibition of PDE7A activity and the selectivity over other PDE isozymes (PDE1A/B/C, 2A, 3A/B, 4A/B/C/D, 5A, 8A, 9A, and 10A) were evaluated by Eurofins Panlabs Discovery Services and Reaction Biology Corp., respectively. Human recombinant enzymes were used for the assays. The inhibitory assays were performed and calculated in duplicate at 3 µM. If the inhibition percentage was less than 50%, the assay for half-maximal inhibitory concentration (IC50) value was conducted in […]
CYP450 isoform metabolism and in vitro safety profiling
The inhibitory constant of compound 26 toward cytochrome P450-dependent metabolic pathways was determined for individual CYP isoform (CYP1A2, CYP2C9, CYP2C19, CYP2D6, and CYP3A4). Reference inhibitors were included as positive controls. A 10 µM solution of compound 27 was used for initial screening. If the inhibition percentage was less than 50%, the experiment was stopped. If the inhibition potency was greater than 50%, the gradient concentrations of compound 27 were used for IC 50 determination. The P450 reactions were detected at Ext/Em: 405 nm/460 nm (530 nm/605 nm for CYP2C9) in a […]

T1 sequence (Q13946 whole entry): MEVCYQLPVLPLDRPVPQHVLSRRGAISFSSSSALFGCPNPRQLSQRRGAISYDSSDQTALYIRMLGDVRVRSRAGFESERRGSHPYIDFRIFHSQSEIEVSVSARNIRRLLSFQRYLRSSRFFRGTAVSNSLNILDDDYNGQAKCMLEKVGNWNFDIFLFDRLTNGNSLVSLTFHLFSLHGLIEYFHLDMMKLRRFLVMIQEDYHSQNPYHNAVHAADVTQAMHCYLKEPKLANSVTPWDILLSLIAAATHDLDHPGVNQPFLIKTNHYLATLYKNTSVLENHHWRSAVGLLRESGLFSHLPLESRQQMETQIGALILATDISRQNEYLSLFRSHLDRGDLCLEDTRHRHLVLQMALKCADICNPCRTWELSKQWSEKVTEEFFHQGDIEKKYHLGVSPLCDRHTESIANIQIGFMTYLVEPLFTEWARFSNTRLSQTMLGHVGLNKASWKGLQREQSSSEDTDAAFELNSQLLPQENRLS

Q: COc1ccc(Cl)c2c1C1(CCCCC1)NC(=O)N2 [Compound 27] was tested. Which pIC50 did it give?
A: 7.51
